Converted amounts (≈) assume the structure as drawn.
Columns and labels:
Experiment in all cases: Agar dilution test (MIC), Isosensitest medium
Format in all cases: cell-based
[1] = system: E. coli 455/7; settings: Escherichia coli, strain E. coli 455/7, Denley multipoint inoculator, read-out: MHK
Text: (§1) In der nachstehenden Tabelle sind die MHK-Werte der erfindungsgemäßen Verbindung angegeben.

[2] = system: Klebsiella 6179; settings: strain Klebsiella 6179, Denley multipoint inoculator, read-out: MHK
Text: as §1

[3] = system: Proteus 8175; settings: strain Proteus 8175, Denley multipoint inoculator, read-out: MHK
Text: as §1

[4] = system: Proteus mir. 8223; settings: strain Proteus mir. 8223, Denley multipoint inoculator, read-out: MHK
Text: as §1

[5] = system: Pseudom. W.; settings: strain Pseudom. W., Denley multipoint inoculator, read-out: MHK
Text: as §1

[6] = system: Serratia 16040; settings: strain Serratia 16040, Denley multipoint inoculator, read-out: MHK
Text: as §1

[7] = system: Staph. aur. 133; settings: strain Staph. aur. 133, Denley multipoint inoculator, read-out: MHK
Text: as §1

[8] = system: Streptococc. faec. 9790; settings: strain Streptococc. faec. 9790, Denley multipoint inoculator, read-out: MHK
Text: as §1

With `O=C(O)c1cn(C2CC2)c2cc3c(cc2c1=O)OCO3` [I, 5-Cyclopropyl-5,8-dihydro-8-oxo-1,3-dioxolo[4,5-g]chinolin-7-carbonsäure] as the compound, how does the MIC [1] read?
The MIC was 16 µg/mL (≈ 58.6 µM).

And the MIC [2]?
Its MIC is 0.06 µg/mL (≈ 0.22 µM).

What about the MIC [3] of the same compound?
Its MIC is 0.03 µg/mL (≈ 0.11 µM).

What about the MIC [4] of the same compound?
Its MIC is 8 µg/mL (≈ 29.3 µM).

What about the MIC [5] of the same compound?
Its MIC is 4 µg/mL (≈ 14.6 µM).

What about the MIC [6] of the same compound?
The MIC was 4 µg/mL (≈ 14.6 µM).

What about the MIC [7] of the same compound?
Its MIC is 0.25 µg/mL (≈ 0.915 µM).

What about the MIC [8] of the same compound?
The MIC was 8 µg/mL (≈ 29.3 µM).
